Read-outs that look alike come from different tables or passages of the source.
How the values were obtained:
[1] = set-up: method as in EMBL-EBI database; settings: ref EMBL-EBI database, cited from earlier work; for HBA: hydrogen-bond acceptor; for HBD: hydrogen-bond donor
[2] = tested on: isolated perfused rat liver; assay: Fitting of hepatic clearance models (MWSM, WSM, PTM, DM) to IPRL FH vs fu data
Description: (§1) Under this condition, hepatic availability (FH) served as a clear and practical indicator of CLH. […] Based on the principles of the WSM, Equations (3) and (4) were derived by applying Equations (1) and (2), in conjunction with the concept that CLH equals the liver blood flow multiplied by the extraction ratio. Subsequently, data fitting was performed using these formulas.
(§2) Rosuvastatin consistently aligned with the MWSM predictions throughout the experiment.
(§3) The extraction recovery, calibration curves and retention time of each compound are shown in Table S1, Figures S1 and S2, respectively. All available experimental data were included in the analysis. The formula and experimental data were processed by Prism software v10.4.1 (GraphPad Software, Inc) to generate figures and calculate the degree of fit of different models.

[3] = as above; settings: male, Sprague-Dawley, rat, isolated perfused rat liver
Description: as §1, §2, §3

[4] = set-up: method as in PMID 35901930; settings: fraction unbound in plasma; regression dataset; cited from earlier work
[5] = tested on: organic anion-transporting polypeptide; set-up: method as in El-Kattan et al. [36] and DrugBank; settings: With / Without; ref El-Kattan et al. [36] and DrugBank; cited from earlier work
[6] = tested on: p-glycoprotein; set-up: method as in El-Kattan et al. [36] and DrugBank; settings: With / Without; ref El-Kattan et al. [36] and DrugBank; cited from earlier work
[7] = molecular target: human serum albumin (Homo sapiens, UniProt P02768); assay: Rapid equilibrium dialysis (RED), fraction unbound at various HSA concentrations; format: in vitro ADME; settings: drug 1 μg/mL in Krebs buffer, 37 °C, read-out: fraction unbound (fu)
human serum albumin, sequence (P02768 25-609): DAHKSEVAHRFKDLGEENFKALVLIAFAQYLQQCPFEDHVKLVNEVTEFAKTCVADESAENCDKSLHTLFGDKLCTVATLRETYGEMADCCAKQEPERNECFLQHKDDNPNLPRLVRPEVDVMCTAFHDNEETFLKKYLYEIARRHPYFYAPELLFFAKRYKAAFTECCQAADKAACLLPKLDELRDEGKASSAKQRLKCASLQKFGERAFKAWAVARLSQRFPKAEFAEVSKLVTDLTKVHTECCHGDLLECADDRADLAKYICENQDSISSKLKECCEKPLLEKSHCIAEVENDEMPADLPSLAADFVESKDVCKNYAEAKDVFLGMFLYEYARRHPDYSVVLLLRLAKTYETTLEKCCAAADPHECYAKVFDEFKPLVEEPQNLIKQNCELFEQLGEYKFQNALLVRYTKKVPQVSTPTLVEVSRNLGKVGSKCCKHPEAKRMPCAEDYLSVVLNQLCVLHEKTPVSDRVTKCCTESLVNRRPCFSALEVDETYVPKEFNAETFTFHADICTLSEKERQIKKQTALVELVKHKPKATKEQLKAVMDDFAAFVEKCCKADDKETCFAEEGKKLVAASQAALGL
Description: The rapid equilibrium dialysis (RED) apparatus and test inserts were purchased from Thermo Fisher Scientific (Rockford, IL, USA). The unbound fraction of each assessed drug was determined using RED. Briefly, a drug was diluted to 1 μg/mL in Krebs buffer containing different concentrations of HSA. Five hundred microliters of the assessed drug and each of the different HSA concentrations were added to the sample chamber of an insert and 750 μL of blank buffer was added to the adjacent chamber. The loaded inserts were then assembled on a Teflon-based plate.

[8] = Krebs buffer with 0% HSA, 0% HSA
[9] = Krebs buffer with 0.1% HSA, 0.1% HSA
[10] = Krebs buffer with 2% HSA, 2% HSA
[11] = Krebs buffer with […] HSA, 0.25% HSA

Row | SMILES | Aromatic Rings [1] | Heavy Atoms [1] | HBA [1] | HBD [1] | fu p [4] | OATP [5] | P-gp [6] | Optimal Model ([2]; HSA interval 0–2%) | sum of squares, DM ([2]; HSA interval 0–2%) | sum of squares, Modified WSM ([2]; HSA interval 0–2%) | sum of squares, PTM ([2]; HSA interval 0–2%) | sum of squares, WSM ([2]; HSA interval 0–2%) | fraction unbound at 8 h, 1 μg/mL [7, 8] | fraction unbound at 8 h, 1 μg/mL [7, 9] | fraction unbound at 8 h, 1 μg/mL [7, 10] | fraction unbound at 8 h, 1 μg/mL [7, 11] | also measured
1 | CN1C(=O)CN=C(c2ccccc2)c2cc(Cl)ccc21 [Diazepam] | 2 | 20 |  |  |  |  |  |  |  |  |  |  |  |  |  |  | 
2 | O=C(O)Cc1ccccc1Nc1c(Cl)cccc1Cl [Diclofenac] | 2 | 19 | 3 | 2 | 0.004 | Without | Without |  |  |  |  |  |  |  |  |  | Optimal Model ([2]; HSA interval 0–0.01%): MWSM; sum of squares, DM ([2]; HSA interval 0–0.01%): 0.0792; sum of squares, Modified WSM ([2]; HSA interval 0–0.01%): 0.0278; sum of squares, PTM ([2]; HSA interval 0–0.01%): 0.0702; sum of squares, WSM ([2]; HSA interval 0–0.01%): 0.0885; Optimal Model ([2]; HSA interval 0.025–2%): WSM; sum of squares, DM ([2]; HSA interval 0.025–2%): 0.1400; sum of squares, Modified WSM ([2]; HSA interval 0.025–2%): 0.2923; sum of squares, PTM ([2]; HSA interval 0.025–2%): 0.1790; sum of squares, WSM ([2]; HSA interval 0.025–2%): 0.1194; CLint, DM ([2]; male, Sprague-Dawley, rat): 35.94; CLint, PTM ([2]; male, Sprague-Dawley, rat): 27.63; CLint, WSM ([2]; male, Sprague-Dawley, rat): 43.68; fraction unbound [3]: 0.576 to 0.872
3 | CNCCC(Oc1ccc(C(F)(F)F)cc1)c1ccccc1 (centres unmarked) [Fluoxetine] |  |  |  |  |  |  |  | WSM | 0.2062 | 5.9630 | 0.2096 | 0.1154 | 0.99 | 0.45 | 0.05 | 0.4 | fraction unbound at 8 h, 1 μg/mL ([7]; Krebs buffer with […] HSA, 0.025% HSA): 0.87
4 | CC(C)c1nc(N(C)S(C)(=O)=O)nc(-c2ccc(F)cc2)c1/C=C/[C@@H](O)C[C@@H](O)CC(=O)O [Rosuvastatin] | 2 | 33 | 9 | 3 | 0.129 | With | Without | MWSM | 1.4550 | 0.2132 | 1.0670 | 1.8440 | 0.99 | 0.9 | 0.29 | 0.77 | PSA ([1]; polar surface area, in Å2 (unit assumed)): 140.9; fraction unbound at 8 h, 1 μg/mL ([7]; Krebs buffer with 0.375% HSA, 0.375% HSA): 0.65; fraction unbound at 8 h, 1 μg/mL ([7]; Krebs buffer with 0.5% HSA, 0.5% HSA): 0.51; fraction unbound at 8 h, 1 μg/mL ([7]; Krebs buffer with 1% HSA, 1% HSA): 0.42
